# Measured values: PubChem BioAssay AID2745 (NMMLSC, 2010)
# Calls of active or inactive are those of the source. How the calls were made is not given here.
# Experiment: concentration series on yeast TOR reporter LAP4 – cell-based, MLPCN hits, flow cytometry, dose response (AID 2745);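 further: yeast exposed to compound for three hours at 30 degrees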
# Conditions: S. cerevisiae LAP4-GFP reporter, flow cytometry fluorescence; at 33 µM (top of the series)
row,Structure (SMILES),LAP4-GFP fluorescence (kMESF)
1,N#Cc1c2ccc([N+](=O)[O-])cc2[n+]([O-])n1-c1ccccc1,4.85 kMESF (inactive)
2,COc1ccc2c(c1)c(/C=C/c1cc[n+](C)cc1)cn2C,4.11 kMESF (inactive)
3,COc1cc(C=C2C(=O)c3ccccc3C2=O)cc(OC)c1OC,4.04 kMESF (inactive)
4,Cc1ccc2[nH]cc(/C=C/c3cc[n+](C)cc3)c2c1,5.34 kMESF (inactive)
5,O=C1c2sc3nc4ccccc4n3c2C(=O)N1c1ccccc1Cl,3.64 kMESF (inactive)
6,COc1ccccc1[C@@]1(C)ON(c2ccccc2C(F)(F)F)C1=O,7.08 kMESF (inactive)
7,Cc1ccccc1[C@@]1(C)ON(c2ccccc2C(F)(F)F)C1=O,5.8 kMESF (inactive)
8,c1ccc(-c2csc(Nc3cccnc3)n2)nc1,3.67 kMESF (inactive)
9,Cc1ccc(C(=O)/C=C/C(=O)c2ccc(C)cc2)cc1,6.7 kMESF (inactive)
10,COc1cc(N=c2ssnc2Cl)cc(OC)c1,11.3 kMESF (inactive)
11,O=C(NNC(=S)NC(=O)c1ccco1)c1ccc(F)cc1,5.61 kMESF (inactive)
12,CC(C)[C@@]1(c2ccccc2)ON(c2ccccc2C(F)(F)F)C1=O,3.43 kMESF (inactive)
13,O=C(Oc1ccnc2cc(Cl)ccc12)N1CCOCC1,2.63 kMESF (inactive)
14,CCCN1CCc2c(sc(NC(=S)NC(=O)c3ccccc3)c2C#N)C1,7.91 kMESF (inactive)
15,CCc1cccc2sc(N3CCN(C(=O)c4ccc([N+](=O)[O-])o4)CC3)nc12,-0.3 kMESF (inactive)
16,Cc1cc(NC(=O)c2cccnc2Cl)ccc1NC(=O)c1cc2ccccc2o1,3.41 kMESF (inactive)
17,Cc1ccc2c(nc3s/c(=C\c4ccc(-c5ccccc5C(=O)O)o4)c(=O)n32)c1C,15.5 kMESF (inactive)
18,CSc1nnc2c3cc(F)ccc3n(C)c2n1,2.93 kMESF (inactive)
19,O=C(Oc1oc(-c2ccco2)nc1C=Nc1ccccc1)c1ccoc1,8.01 kMESF (inactive)
20,CC(C)C(=O)NC(c1cccs1)c1cc([N+](=O)[O-])c2cccnc2c1O (stereo not drawn),10.5 kMESF (inactive)
21,Cc1ccccc1N1C(=O)C(Cl)=C(N2CCN(c3ccccc3)CC2)C1=O,3.41 kMESF (inactive)
22,COC(=O)c1cc(N2C(=O)C3C(C2=O)C2(C)C=CC3(C)O2)ccc1Cl (stereo not drawn),8.52 kMESF (inactive)

row,Structure (SMILES),LAP4-GFP fluorescence (kMESF)
1,O=C(Oc1oc(-c2ccco2)nc1C=Nc1ccc(Cl)cc1)c1ccco1,8.92 kMESF (inactive)
2,CCCc1cc(N2CCN(c3ccccn3)CC2)n2nc(C)c(-c3ccccc3)c2n1,5.75 kMESF (inactive)
3,COCCN1C(=O)/C(=C/c2ccc(N3CCCC3)cc2C)SC1=S,7.02 kMESF (inactive)
4,CCOC(=O)CSC1=NC(=O)/C(=C/c2ccc(OC)cc2)S1,6.28 kMESF (inactive)
5,CC[C@@]1(c2ccccc2OC)ON(c2ccccc2C(F)(F)F)C1=O,6.51 kMESF (inactive)
6,O=c1c(-c2ccc(Cl)cc2)[n+]([O-])c2ccccc2n1O,16.1 kMESF (inactive)
7,COc1cc(/C=C/[N+](=O)[O-])ccc1O,7.18 kMESF (inactive)
8,O=C(/C=C/c1ccc(Br)cc1)NC(=S)NNC(=O)c1ccco1,5.87 kMESF (inactive)
9,O=C(O)c1ccc2c(c1)C(=O)/C(=C/c1ccccc1)C2=O,3.53 kMESF (inactive)
10,O=C(Cc1ccc(Cl)cc1)NNC(=S)NC(=O)c1cccs1,9.52 kMESF (inactive)
11,CC(C)(C)c1cc(C(c2cccnc2)N2CCN(CCO)CC2)cc(C(C)(C)C)c1O (stereo not drawn),7.26 kMESF (inactive)
12,COc1cc(C=C2C(=O)c3ccccc3C2=O)cc(OC)c1,4.28 kMESF (inactive)
13,O=c1[nH]c(-c2ccc(Cl)cc2)cs1,3.03 kMESF (inactive)
14,CCCc1nnc(NC(=O)c2c(O)c3cccc4c3n(c2=O)CCC4)s1,0.3 kMESF (inactive)
15,COc1ccc(/C=C2/C(=O)ON=C2c2ccccc2)cc1OC,14 kMESF (inactive)
16,Cc1ccc(S(=O)(=O)N2CC(C(=O)O)=CC[C@H]2c2ccc(Cl)cc2)cc1,4.05 kMESF (inactive)
17,COc1cccc(N=Cc2nc(-c3ccccc3)oc2OC(C)=O)c1,12.8 kMESF (inactive)
18,CCOC(=O)C(C(=O)OCC)C(C(=O)OCC)N1CCOCC1 (stereo not drawn),6.39 kMESF (inactive)
19,COc1cc(/C=C2\C(=O)ON=C2c2ccc(Cl)cc2)ccc1O,9.12 kMESF (inactive)
20,CC(=O)N(C1=C(Cl)C(=O)c2ccccc2C1=O)C1CCCCC1,-2.43 kMESF (inactive)
21,O=c1c2cnn(-c3ccccc3)c2ncn1Cc1ccco1,2.63 kMESF (inactive)
22,O=C(O)c1cc[c]([Hg][Cl])cc1,8.49 kMESF (inactive)

row,Structure (SMILES),LAP4-GFP fluorescence (kMESF)
1,O=C(Nc1ccc(O)cc1)C1CCCN1S(=O)(=O)c1ccc(F)cc1 (stereo not drawn),3.13 kMESF (inactive)
2,C[n+]1ccc(/C=C/c2c[nH]c3ccccc23)cc1,9.29 kMESF (inactive)
3,Cc1ccc(/C=C2\SC(=S)N(CC3CCCO3)C2=O)o1 (stereo not drawn),4.89 kMESF (inactive)
4,Cc1c(NC2=C(Cl)C(=O)N(c3ccccc3Cl)C2=O)c(=O)n(-c2ccccc2)n1C,3.78 kMESF (inactive)
5,Cc1c(N2C(=O)/C(=C\c3ccccc3O)SC2=S)c(=O)n(-c2ccccc2)n1C,10.8 kMESF (inactive)
6,O=C(Nc1nc2ccc(F)cc2s1)c1ccccn1,8.11 kMESF (inactive)
7,O=C(Nc1ccccc1)ON=C1CCCC1,4.79 kMESF (inactive)
8,COc1ccc(NC2=C(Cl)C(=O)N(CCc3ccccc3)C2=O)c(OC)c1,3.18 kMESF (inactive)
9,CC(=O)[C@]1(O)Cc2c(O)c3c(c(O)c2[C@@H](O[C@H]2C[C@H](N)[C@H](O)[C@H](C)O2)C1)C(=O)c1ccccc1C3=O,9.67 kMESF (inactive)
10,CCN(CC)c1ccc(/C=C2\C(=O)c3ccc(C(=O)O)cc3C2=O)cc1,392 kMESF (inactive)
11,COc1ccc2c(c1)c1nnc(SC)nc1n2C,4.19 kMESF (inactive)
12,N/C(=N\OC(=O)c1ccc(Cl)cc1Cl)c1ccccc1,12.4 kMESF (inactive)
13,O=C(Nc1ccc(NC(=O)c2cc3ccccc3o2)cc1)c1ccc2c(c1)OCCO2,3.21 kMESF (inactive)
14,N/C(=N\OC(=O)c1cc(Br)ccc1Cl)c1ccccn1,12.2 kMESF (inactive)
15,O=C(NC(=S)NNC(=O)[C@H]1C[C@@H]1c1ccccc1)c1cccc(F)c1,17.8 kMESF (inactive)
16,Cc1sc(/C=C2\C(=O)ON=C2c2ccccc2)cc1Br,2.73 kMESF (inactive)
17,Oc1c(Br)cc(Br)cc1C=Nc1ccc2c(c1)OCO2,10.8 kMESF (inactive)
18,CCCCc1ccc(/C=C2/C(=O)ON=C2c2ccccc2)s1,3.67 kMESF (inactive)
19,CN(C)c1ccc(N=Cc2nc(-c3ccccc3)oc2OC(=O)c2ccccc2)cc1,4.09 kMESF (inactive)
20,COC(=O)CCS(=O)(=O)c1nc(-c2ccccc2)cc(C(F)(F)F)n1,20.1 kMESF (inactive)
21,COc1cc(/C=C2/C(=O)c3cccc([N+](=O)[O-])c3C2=O)c(Br)cc1O,3.64 kMESF (inactive)
22,COc1cccc(/C=C2\C(=O)N(c3cccc(C)c3)C(=O)c3ccccc32)c1,9.02 kMESF (inactive)

row,Structure (SMILES),LAP4-GFP fluorescence (kMESF)
1,Oc1ccc2ccccc2c1/C=N/Nc1nnc(-c2ncc[nH]2)c2ccccc12,-7.45 kMESF (inactive)
2,CCN1C(=O)/C(=C\C(=O)c2cccs2)c2cc(Br)ccc21,12 kMESF (inactive)
3,Cc1[nH]n(-c2ncc(-c3ccccc3)s2)c(=O)c1C(c1ccc(Cl)cc1)C(C#N)C#N (stereo not drawn),8.02 kMESF (inactive)
4,Cc1ccc(-c2nc(C)sc2CC(=O)Nc2nnc(C)s2)cc1,3.81 kMESF (inactive)
5,Cc1ccc(N2C(=O)CC(Sc3ncn[nH]3)C2=O)cc1C (stereo not drawn),7.56 kMESF (inactive)
6,COC(CNC(=O)c1ccc2c3c(onc13)-c1ccccc1C2=O)OC,2.86 kMESF (inactive)
7,O=C1C=C(Nc2ccc(Cl)cc2)C(=O)N1c1ccc(Cl)cc1,3.03 kMESF (inactive)
8,CCOc1cc(C=C2C(=O)c3ccccc3C2=O)ccc1OCC(=O)Nc1ccc(C)cc1,3.87 kMESF (inactive)
9,CCOC(=O)C1=C(O)c2ccccc2C(=O)/C1=C\c1ccc(C)cc1,-35.8 kMESF (inactive)
10,Cc1c(NC2=C(Cl)C(=O)N(c3ccccc3)C2=O)c(=O)n(-c2ccccc2)n1C,6.71 kMESF (inactive)
11,O=C(Oc1c(Cl)cc(Cl)c2cccnc12)c1cccs1,13.8 kMESF (inactive)
12,CC(=O)Oc1oc(-c2ccccc2)nc1C=Nc1ccc(N(C)C)cc1,7.39 kMESF (inactive)
13,CC(=O)Nc1ncnc2c1c(-c1ccc(Cl)cc1)nn2C(C)(C)C,5.09 kMESF (inactive)
14,CS(=O)(=O)c1nc(-c2ccccc2)cc(C(F)(F)F)n1,16.6 kMESF (inactive)
15,CCN(CC)c1ccc2cc(-c3nc4ccccc4[nH]3)c(=O)oc2c1,3.03 kMESF (inactive)
16,COc1cccc2c(=O)c(C(=O)NCc3cccs3)c[nH]c12,2.13 kMESF (inactive)
17,Cc1ccc(N2C(=O)C(Cl)=C(Nc3c(C)n(C)n(-c4ccccc4)c3=O)C2=O)cc1,2.87 kMESF (inactive)
18,O=C(CSC1=NS(=O)(=O)c2ccccc21)Nc1ccccc1,7.82 kMESF (inactive)
19,O=c1c2cc(Cl)ccc2nc(-c2ccc([N+](=O)[O-])cc2)n1O,5.26 kMESF (inactive)
20,COc1ccc(-c2cc(C(F)(F)F)nc(S(C)(=O)=O)n2)cc1,10.6 kMESF (inactive)
21,N#C/C(=C\c1cc(Br)ccc1F)C(=O)NC1CC1,18.3 kMESF (inactive)
22,O=C(NNC(=S)NC(=O)C12CC3CC(CC(C3)C1)C2)c1ccncc1,15.7 kMESF (inactive)
